{
  "source": "patent US20240246941A1",
  "about": "“SUBSTITUTED 4-(3-AMINOPROP-1-YL)AMINOQUINOLINE ANALOGS AS MODULATORS OF MELANOMA-ASSOCIATED ANTIGEN 11 UBIQUITIN LIGASE” (ST. JUDE CHILDREN'S RESEARCH HOSPITAL, INC., priority 2020, published 2024)",
  "data": [
    {"biological_target": "MAGE-A11:PCF11 (Homo sapiens (Human), UniProt P43364)", "sequence (P43364 218-429)": "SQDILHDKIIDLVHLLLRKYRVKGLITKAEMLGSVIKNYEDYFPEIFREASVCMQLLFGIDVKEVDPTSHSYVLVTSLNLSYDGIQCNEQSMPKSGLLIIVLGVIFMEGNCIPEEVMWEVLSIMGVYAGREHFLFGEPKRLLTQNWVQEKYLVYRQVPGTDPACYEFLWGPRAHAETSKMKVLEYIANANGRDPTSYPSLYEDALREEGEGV", "experiment": "TR-FRET single point screening at 15 μM", "type": "binding", "set-up": "unit not given here", "details": "single point TR-FRET screening at 15 μM against MAGE-A11:PCF11", "outline": "(§1)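 Single-point screen at 15 μM (0.25% DMSO) measuring disruption of GST-MAGEA11 (5 nM) binding to FAM-PCF11_4 peptide (200 nM) detected by Tb-anti-GST (5 nM). Buffer 50 mM Tris pH 7.5, 20 mM MgCl2, 0.1 mg/ml BSA, 1 mM DTT; 90 min at ~25 °C; 520/490 nm ratio converted to % inhibition versus controls.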", "values": [
      {"compound": "Cc1cccc(CN(CCCCNc2ccnc3cc(Cl)ccc23)Cc2ccccc2)c1", "note": "[SJ000361206]", "TR-FRET signal": 29.54},
      {"compound": "COc1ccc2nc3cc(Cl)ccc3c(NCCCNCc3ccc(Cl)c([N+](=O)[O-])c3)c2c1", "note": "[SJ000523036]", "TR-FRET signal": "−95.38"},
      {"compound": "COc1ccc2nc3cc(Cl)ccc3c(NCCCNCc3cc(C(F)(F)F)ccc3OC)c2c1", "note": "[SJ000521002]", "TR-FRET signal": "−290.2"},
      {"compound": "CCCN(CCCNc1c2ccc(Cl)cc2nc2ccc(OC)cc12)Cc1cn(C(C)=O)c2ccccc12", "note": "[SJ000522736]", "TR-FRET signal": "−192.4"},
      {"compound": "COc1ccc2ncc(S(=O)(=O)c3ccc(C)cc3)c(N3CCN(c4ccccc4F)CC3)c2c1", "note": "[SJ000117076]", "TR-FRET signal": 6.02},
      {"compound": "COc1ccc2nc3cc(Cl)ccc3c(NCCCNCc3nccs3)c2c1", "note": "[SJ000520989]", "TR-FRET signal": "−355.2"},
      {"compound": "CCN1CCN(c2c(C(=O)c3ccccc3)cnc3ccc(OC)cc23)CC1", "note": "[SJ000247365]", "TR-FRET signal": "−0.2733"},
      {"compound": "Cc1ccc2ncc(S(=O)(=O)c3ccccc3)c(N3CCN(c4ccccc4F)CC3)c2c1", "note": "[SJ000315092]", "TR-FRET signal": "−33.48"},
      {"compound": "Cc1cccc(N2CCN(c3c(S(=O)(=O)c4ccccc4)cnc4ccccc34)CC2)c1C", "note": "[SJ000117081]", "TR-FRET signal": "−13.13"},
      {"compound": "Cn1cc(CN(CCCCNc2ccnc3cc(Cl)ccc23)Cc2ccccc2)c2ccccc21", "note": "[SJ000520440]", "TR-FRET signal": "−14.35"},
      {"compound": "COc1ccc2nc3cc(Cl)ccc3c(NCCCNCc3ccc(Cl)cc3Cl)c2c1", "note": "[SJ000522958]", "TR-FRET signal": "−97.83"},
      {"compound": "CCOc1ccc2ncc(S(=O)(=O)c3ccc(OC)cc3)c(N3CCN(CC)CC3)c2c1", "note": "[SJ000083971]", "TR-FRET signal": "−6.389"},
      {"compound": "CN(C)c1ccc(CN(CCCCNc2ccnc3cc(Cl)ccc23)Cc2ccccc2)cc1", "note": "[SJ000522727]", "TR-FRET signal": 21.52},
      {"compound": "Clc1ccc2c(NC3CCN(Cc4ccc(Cl)o4)CC3)ccnc2c1", "note": "[SJ000311180]", "TR-FRET signal": 0.6827},
      {"compound": "Clc1ccc2c(NCCCCN(Cc3ccccc3)CC3CCCCC3)ccnc2c1", "note": "[SJ000361194]", "TR-FRET signal": 41.93}
    ]},
    {"biological_target": "MAGE-A11:PCF11 (Homo sapiens (Human), UniProt P43364)", "experiment": "TR-FRET single point screening at 15 μM", "type": "binding", "set-up": "unit not given here", "details": "single point TR-FRET screening of quinoline compounds against MAGE-A11:PCF11; 15 μM", "outline": "as §1", "values": [
      {"compound": "CCCN(CCCCCC(=O)OC)CCCNc1ccnc2cc(C(F)(F)F)ccc12", "note": "[SJ000575191]", "TR-FRET signal": 5.6},
      {"compound": "CCCN(CCCNc1ccnc2cc(Cl)ccc12)Cc1c[nH]c2ccccc12", "note": "[SJ000523007]", "TR-FRET signal": 26.23},
      {"compound": "CSC(C)CCNCCCNc1ccnc2cc(C(F)(F)F)ccc12", "note": "(centres unmarked) [SJ000361125]", "TR-FRET signal": 24.46},
      {"compound": "c1coc(CNCCCNc2ccnc3cc(-c4cccc5ccccc45)ccc23)c1", "note": "[SJ000311274]", "TR-FRET signal": 41.57},
      {"compound": "Clc1ccc2c(NCCCN(Cc3ccccc3)Cc3ccc4[nH]ccc4c3)ccnc2c1", "note": "[SJ000520430]", "TR-FRET signal": 66.43},
      {"compound": "CCCN(CCCNc1ccnc2cc(C(F)(F)F)ccc12)Cc1ccoc1", "note": "[SJ000361267]", "TR-FRET signal": 28.55},
      {"compound": "CCCN(CCCNc1c2ccc(Cl)cc2nc2ccc(OC)cc12)Cc1cccc(C(F)(F)F)c1", "note": "[SJ000522986]", "TR-FRET signal": 16.15},
      {"compound": "Cc1ccc(F)cc1CN(CCCNc1ccnc2cc(Cl)ccc12)Cc1ccccc1", "note": "[SJ000520458]", "TR-FRET signal": 29.77},
      {"compound": "CC(C)(C)c1ccc(Oc2ccc3c(NCCCNCc4ccco4)ccnc3c2)cc1", "note": "[SJ000311234]", "TR-FRET signal": 57.54},
      {"compound": "CCCN(CCCNc1c2ccc(Cl)cc2nc2ccc(OC)cc12)Cc1ccc(-c2ccccc2)cc1", "note": "[SJ000522740]", "TR-FRET signal": "−74.01"},
      {"compound": "CCCN(CCCNc1ccnc2cc(Cl)ccc12)Cc1ccc(-c2cccc(Cl)c2)o1", "note": "[SJ000523045]", "TR-FRET signal": 16.23},
      {"compound": "COC(=O)CCCCCNCCCNc1ccnc2cc(C(F)(F)F)ccc12", "note": "[SJ000521044]", "TR-FRET signal": 19.59},
      {"compound": "CCCN(CCCNc1ccnc2cc(Cl)ccc12)Cc1ncc[nH]1", "note": "[SJ000523008]", "TR-FRET signal": 4.165},
      {"compound": "Cc1cc(C)c(CN(CCCNc2ccnc3cc(Cl)ccc23)Cc2ccccc2)c(C)c1", "note": "[SJ000361169]", "TR-FRET signal": 31.19},
      {"compound": "Clc1ccc2c(NCCCN(CCOCc3ccccc3)Cc3ccccc3)ccnc2c1", "note": "[SJ000357583]", "TR-FRET signal": 13.24},
      {"compound": "CCCN(CCCNc1ccnc2cc(C(F)(F)F)ccc12)Cc1cccc2c1OCO2", "note": "[SJ000520472]", "TR-FRET signal": 14.62},
      {"compound": "CCCN(CCCNc1c2ccc(Cl)cc2nc2ccc(OC)cc12)Cc1nc(C)cs1", "note": "[SJ000522966]", "TR-FRET signal": "−82.15"}
    ]}
  ]
}
